Assay results as given in PMC9562341, “AI protein structure prediction-based modeling and mutagenesis of a protostome receptor and peptide ligands reveal key residues for their interaction” (The Journal of Biological Chemistry, 2022).
Entries after “also recorded” stand apart in the source; their conditions may differ. Read-outs that look alike come from different tables or passages of the source. Values belong to the substance of their own block, whether it stands above or below them. Where no end group is shown, it is not given here.

Experiments:
[1] = biological target: T1, ALKR (Aplysia leucokinin-like peptide receptor) (Aplysia californica, UniProt A0A977Q7Q2); test: IP1 accumulation assay, CHO-K1 cells transfected with ALKR; type: cell-based; details: for EC50: CHO-K1 transiently transfected with ALKR, no promiscuous Gαq, ALK1 n = 13, ALK2 n = 4, others n = 3; for Activation of ALKR (in words): IP1 accumulation in CHO-K1 transfected with ALKR
T1 sequence (A0A977Q7Q2 1-429): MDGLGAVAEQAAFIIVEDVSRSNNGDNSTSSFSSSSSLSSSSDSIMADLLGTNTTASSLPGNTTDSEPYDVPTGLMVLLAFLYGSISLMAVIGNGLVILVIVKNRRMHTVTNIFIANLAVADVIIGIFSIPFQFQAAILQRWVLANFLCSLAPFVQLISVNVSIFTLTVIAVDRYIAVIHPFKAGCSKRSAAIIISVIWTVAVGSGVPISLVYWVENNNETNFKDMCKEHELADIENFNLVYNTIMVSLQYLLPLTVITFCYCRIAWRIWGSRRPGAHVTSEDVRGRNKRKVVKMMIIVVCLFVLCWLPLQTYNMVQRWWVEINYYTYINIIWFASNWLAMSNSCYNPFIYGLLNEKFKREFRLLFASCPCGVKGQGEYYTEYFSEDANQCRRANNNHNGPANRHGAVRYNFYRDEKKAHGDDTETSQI
Source text: To examine whether the native ALKs could activate the putative ALKR, we expressed the ALKR in Chinese hamster ovary K1 (CHO-K1) cells and examined ALK-mediated changes in the concentration of inositol monophosphate (IP1), a degradation product of the second messenger (inositol trisphosphate) in the Gq signaling pathway upon ligand-induced activation ([88]) (Figs. 4 and S5). […] All endogenous ALK peptides could activate ALKR in a dose-dependent manner (Fig. 4, A–C). […] The lowest EC50 values were for ALK8 (EC50 = 10 nM) and ALK9 (EC50 = 10 nM). The EC50 values for ALK1, ALK2, ALK3, ALK4, ALK5, ALK10, ALK13 were slightly higher than that of ALK9, but there was no statistically significant difference between them (Table S5).
(§1) IP1 accumulation assay measures concentration of IP1 ([88]), that is hydrolyzed from the second messenger, inositol trisphosphate, generated by Gαq pathway when GPCR expressed in CHO-K1 cells is activated by an appropriate ligand. We note two reasons that we selected mammalian CHO-K1 cells for assays for ligand-receptor (GPCR) activity: (1) there are no established molluscan cell lines available; (2) CHO-K1 cells have been extensively utilized not only for vertebrate GPCRs (e.g., ([97])) but also for invertebrate/protostome GPCRs, including other molluscs ([9], [11], [73]), annelids ([8]), jellyfish ([98]), Caenorrhabditis elegans ([99]), and arthropods ([76], [78], [79], [80]). Given that LKRs are only present in protostomes ([6], [7], [66], [67]), an additional advantage of using mammalian cells to assay ligand-receptor activity is that the effects of a possible native LKR in protostome cell lines could be excluded.
(§2) In order to express the Aplysia putative receptor transiently in CHO-K1, the cDNA was cloned into the mammalian expression vector pcDNA3.1(+). […] Transfection experiments were performed when the cells were grown to 70 to 90% confluence. For the ALKR, in each dish (60-mm diameter), 4 μg of the putative receptor plasmids [in pcDNA3.1(+)] were mixed with 400 μl of Opti-MEM (Gibco, 11058021), followed by the addition of 15 μl of Turbofect (Thermo Fisher Scientific, R0531). […] Thus, 3 μg of the putative receptor plasmids [in pcDNA3.1(+)] and 3 μg of promiscuous Gαq protein ([89]) [in pcDNA3.1(+)] were cotransfected in the above procedure for the Anopheles LKR ([8], [10]). The CHO-K1 cells with the reagents added above were mixed gently and incubated at room temperature for 15 min. The DNA/Turbofect mixture dropwise was then added to the dish, and the cells were incubated at 37 °C in 5% CO2 overnight. The next day, the cells were trypsinized and reseeded in opaque white 96-well half-area (Corning, 3688) or 384-well tissue culture–treated plates (Corning, 3570) at a density of 20,000 cells/well in F-12K and 10% FBS and incubated at 37 °C in 5% CO2 overnight. On the third day, the activation of the receptors was detected by monitoring IP1 accumulation using IP1 detection kit (Cisbio, 62IPAPEB) with a Tecan Spark plate reader. Except for using 0.5 × reagents for the anti-IP1-cryptate and IP1-d2 reagents, all other procedures were performed in accordance with the IP1 detection kit manufacturer’s instructions.

Anopheles LKR = biological target: T2, Anopheles LKR (Anopheles stephensi, UniProt Q694V6); test: IP1 accumulation assay, CHO-K1 cells cotransfected with Anopheles LKR and promiscuous Gαq; type: cell-based; details: log scale, mean ± SEM, n = 3
T2 sequence (Q694V6 1-573): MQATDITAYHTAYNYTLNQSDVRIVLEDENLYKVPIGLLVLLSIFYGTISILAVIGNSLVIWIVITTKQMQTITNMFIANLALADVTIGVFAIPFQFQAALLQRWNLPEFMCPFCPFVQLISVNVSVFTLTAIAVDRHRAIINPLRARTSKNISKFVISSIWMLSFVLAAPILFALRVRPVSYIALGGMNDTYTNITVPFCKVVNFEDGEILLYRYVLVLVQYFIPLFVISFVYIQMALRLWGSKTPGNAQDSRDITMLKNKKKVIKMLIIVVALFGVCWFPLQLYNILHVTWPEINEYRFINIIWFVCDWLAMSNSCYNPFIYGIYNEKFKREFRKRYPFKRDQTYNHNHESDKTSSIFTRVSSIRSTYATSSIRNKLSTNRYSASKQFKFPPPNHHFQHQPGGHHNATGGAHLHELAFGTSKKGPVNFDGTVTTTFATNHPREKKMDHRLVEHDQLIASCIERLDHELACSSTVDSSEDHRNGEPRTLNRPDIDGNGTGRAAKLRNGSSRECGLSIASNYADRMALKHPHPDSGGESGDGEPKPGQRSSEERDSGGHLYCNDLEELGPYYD
Source text: Considering the similarity of leucokinin-like peptides in different species (Fig. 1), we sought to evaluate cross-activity between leucokinin peptides and their receptors in different species. We selected A. stephensi because it is a pest, and this would also provide an opportunity to determine if Aplysia LKs could be potentially used as insecticides ([67]). […] Thus, we cotransfected promiscuous Gαq with the Anopheles receptor, whereas there was no cotransfection of promiscuous Gαq for ALKR.
as §1
as §2, with “Except for using 0.5 × reagents for the anti-IP1-cryptate and IP1-d2 reagents, all other procedures were performed in accordance with the IP1 detection kit manufacturer’s instructions.” left out

[2] = biological target: Aplysia leucokinin-like peptide receptor (Aplysia californica)
[3] = biological target: ALKR L157Q (Aplysia californica)
[4] = biological target: ALKR Q133A & Y213A & Q317A (Aplysia californica)
[5] = biological target: ALKR Q133A (Aplysia californica)
[6] = biological target: ALKR I329Q (Aplysia californica)
[7] = biological target: ALKR Q250A & Q311A (Aplysia californica)
[8] = biological target: ALKR Y213A (Aplysia californica)
[9] = biological target: ALKR Q317A (Aplysia californica)
[10] = biological target: ALKR L157Q & I329Q (Aplysia californica)
[11] = biological target: ALKR N314A (Aplysia californica)
[12] = biological target: Aplysia leucokinin-like peptide receptor (Aplysia californica); remark: listed apart in the source
ALKR I329Q = ALKR I329Q (Aplysia californica, UniProt A0A977Q7Q2, I329Q); test: IP1 accumulation assay, ALKR mutant I329Q in CHO-K1; type: cell-based
Source text: as §1
(§3) In order to express the Aplysia putative receptor transiently in CHO-K1, the cDNA was cloned into the mammalian expression vector pcDNA3.1(+). […] Transfection experiments were performed when the cells were grown to 70 to 90% confluence. […] On the third day, the activation of the receptors was detected by monitoring IP1 accumulation using IP1 detection kit (Cisbio, 62IPAPEB) with a Tecan Spark plate reader. […]

ALKR N314A = ALKR N314A (Aplysia californica, UniProt A0A977Q7Q2, N314A); test: IP1 accumulation assay, ALKR mutant N314A in CHO-K1; type: cell-based
Source text: as §1, §3

ALKR Q317A = ALKR Q317A (Aplysia californica, UniProt A0A977Q7Q2, Q317A); test: IP1 accumulation assay, ALKR mutant Q317A in CHO-K1; type: cell-based
Source text: as §1, §3

ALKR Q317N = ALKR Q317N (Aplysia californica, UniProt A0A977Q7Q2, Q317N); test: IP1 accumulation assay, ALKR mutant Q317N in CHO-K1; type: cell-based
Source text: as §1, §3

ALKR Y213A = ALKR Y213A (Aplysia californica, UniProt A0A977Q7Q2, Y213A); test: IP1 accumulation assay, ALKR mutant Y213A in CHO-K1; type: cell-based
Source text: as §1, §3

ALKR Q133A = ALKR Q133A (Aplysia californica, UniProt A0A977Q7Q2, Q133A); test: IP1 accumulation assay, ALKR mutant Q133A in CHO-K1; type: cell-based
Source text: as §1, §3

ALKR L157Q = ALKR L157Q (Aplysia californica, UniProt A0A977Q7Q2, L157Q); test: IP1 accumulation assay, ALKR mutant L157Q in CHO-K1; type: cell-based; details: mutant without FLAG tag, n = 3
Source text: as §1, §3

[13] = log scale, IP1 detection kit (Cisbio), mean ± SEM, inactive: greater than highest concentration tested, read-out: log [EC50] on ALKR (converted)

Sequence of ALKR L157Q (A0A977Q7Q2 entry or part of it L157Q): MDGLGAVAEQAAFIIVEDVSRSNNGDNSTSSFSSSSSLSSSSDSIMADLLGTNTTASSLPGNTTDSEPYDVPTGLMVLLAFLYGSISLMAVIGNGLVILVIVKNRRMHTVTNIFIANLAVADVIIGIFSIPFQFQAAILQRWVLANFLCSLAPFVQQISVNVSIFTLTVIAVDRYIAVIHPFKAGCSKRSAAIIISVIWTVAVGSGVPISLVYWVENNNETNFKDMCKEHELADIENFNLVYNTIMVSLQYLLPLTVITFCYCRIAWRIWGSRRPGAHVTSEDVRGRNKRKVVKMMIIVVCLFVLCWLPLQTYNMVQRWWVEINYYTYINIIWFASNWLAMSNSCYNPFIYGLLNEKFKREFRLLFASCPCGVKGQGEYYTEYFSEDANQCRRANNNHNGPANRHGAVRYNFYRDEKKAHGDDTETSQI
Sequence of ALKR I329Q (A0A977Q7Q2 entry or part of it I329Q): as the sequence (A0A977Q7Q2 entry or part of it L157Q) above, with Q157L, I329Q counted along it
Sequence of ALKR Q133A (A0A977Q7Q2 entry or part of it Q133A): as the sequence (A0A977Q7Q2 entry or part of it L157Q) above, with Q133A, Q157L counted along it
Sequence of ALKR Q317A (A0A977Q7Q2 entry or part of it Q317A): as the sequence (A0A977Q7Q2 entry or part of it L157Q) above, with Q157L, Q317A counted along it
Sequence of ALKR Q317N (A0A977Q7Q2 entry or part of it Q317N): as the sequence (A0A977Q7Q2 entry or part of it L157Q) above, with Q157L, Q317N counted along it
Sequence of ALKR N314A (A0A977Q7Q2 entry or part of it N314A): as the sequence (A0A977Q7Q2 entry or part of it L157Q) above, with Q157L, N314A counted along it
Sequence of ALKR Y213A (A0A977Q7Q2 entry or part of it Y213A): as the sequence (A0A977Q7Q2 entry or part of it L157Q) above, with Q157L, Y213A counted along it

Substance: PAFHSWS-OH [ALK1-OH]
EC50 ([1]; IP1 accumulation, average, rounded to two significant figures, read-out: EC50 on ALKR): > 10 µM | Activation of ALKR (in words) [1]: not active; also recorded: not able to activate | EC50 [1, 13]: > 10 µM

Substance: PAFSPWS-NH2 [ALK9]
EC50 (Anopheles LKR): 0.724 µM | EC50 [1, 13]: 0.00977 µM

Substance: PAFHSWA-NH2 [ALK1_A7]
EC50 [1, 13]: 0.0282 µM

EC50 of IP1 accumulation in CHO-K1 cells transfected with ALKR [2]: 0.01 µM
Substance: Aplysia leucokinin-like peptide 8

Substance: PAFASWS-NH2 [ALK1_A4]
EC50 [1, 13]: 0.0513 µM

Substance: PRFHAWS-NH2 [ALK7]
EC50 [1, 13]: 0.0912 µM

EC50 of IP1 accumulation in CHO-K1 cells transfected with ALKR [2]: 0.01 µM
Substance: Aplysia leucokinin-like peptide 9

EC50 of IP1 accumulation in CHO-K1 cells expressing the ALKR mutant, activated by ALK1 [3]: 0.077 µM | EC50 of IP1 accumulation in CHO-K1 cells expressing the ALKR mutant, activated by ALK1 [4]: 13 µM | EC50 of IP1 accumulation in CHO-K1 cells expressing the ALKR mutant, activated by ALK1 [5]: 0.078 µM | EC50 of IP1 accumulation in CHO-K1 cells expressing the ALKR mutant, activated by ALK1 [6]: 6.8 µM | EC50 of IP1 accumulation in CHO-K1 cells expressing the ALKR mutant, activated by ALK1 [7]: 19 µM | EC50 of IP1 accumulation in CHO-K1 cells expressing the ALKR mutant, activated by ALK1 [8]: 0.37 µM | EC50 of IP1 accumulation in CHO-K1 cells expressing the ALKR mutant, activated by ALK1 [9]: 0.056 µM | EC50 of IP1 accumulation in CHO-K1 cells expressing the ALKR mutant, activated by ALK1 [10]: 35 µM | EC50 of IP1 accumulation in CHO-K1 cells expressing the ALKR mutant, activated by ALK1 [11]: 0.12 µM
Substance: Aplysia leucokinin-like peptide 1

EC50 of IP1 accumulation in CHO-K1 cells transfected with ALKR [2]: 0.032 µM
Substance: Aplysia leucokinin-like peptide 6

Substance: PAFHSWS-OH [ALK1_nG]
Active (√ active / × not active) ([1]; IP1 accumulation, ALKR, tick or cross in column Active (EC50)): ×

Substance: LAAFHAWS-NH2 [ALK12]
EC50 [1, 13]: 0.295 µM

EC50 of IP1 accumulation in CHO-K1 cells transfected with ALKR [12]: 0.051 µM
Substance: ALK1 with H4 replaced with A (peptide)

Substance: PAFHSWS-NH2 [ALK1]
EC50 (Anopheles LKR): 0.282 µM | EC50 (ALKR I329Q): 6.76 µM | EC50 (ALKR N314A): 0.11 µM | EC50 (ALKR Q317A): 0.0562 µM | EC50 (ALKR Q317N): 0.0251 µM | EC50 (ALKR Y213A): 0.372 µM | Activation of ALKR (in words) [1]: active | EC50 [1, 13]: 0.0138 µM | EC50 (ALKR Q133A): 0.0776 µM | EC50 (ALKR L157Q; EC50 on ALKR L157Q): 0.077 µM | EC50 (ALKR L157Q; log [EC50] on ALKR L157Q, log scale, mean ± SEM): 0.0708 µM

Substance: SEKQPAFHAWS-NH2 [ALK6]
EC50 [1, 13]: 0.0316 µM

EC50 of IP1 accumulation in CHO-K1 cells transfected with ALKR [2]: 0.062 µM
Substance: Aplysia leucokinin-like peptide 11
